Legend:
[1] = tested on: smallflower flatsedge; test: Test B flood test smallflower flatsedge; type: in vivo, Cyperus difformis
Summary of the method: (§1)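 Flood test on plants grown to the 2-leaf stage; treated plants kept in greenhouse twelve to sixteen days, then visually rated against controls on a 0 (no effect) to 10 (complete control) scale.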

[2] = tested on: rice; test: Test B flood test rice; type: in vivo, Oryza sativa
Summary of the method: as §1

[3] = tested on: wild oat; test: Test B pre/postemergence wild oat; type: in vivo, Avena fatua
Summary of the method: (§2)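 Test chemicals in a non-phytotoxic solvent mixture with surfactant were sprayed preemergence onto planted seeds and postemergence onto plants 2 to 18 cm tall (1- to 4-leaf stage). After twelve to sixteen days in a greenhouse, injury was visually rated against untreated controls from 0 (no effect) to 10 (complete control).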

[4] = tested on: morningglory; test: Test B pre/postemergence morningglory; type: in vivo, Ipomoea hederacea
Summary of the method: as §2

[5] = tested on: pigweed; test: Test B pre/postemergence pigweed; type: in vivo, Amaranthus retroflexus
Summary of the method: as §2

[6] = tested on: wheat; test: Test B pre/postemergence wheat; type: in vivo, Triticum aestivum
Summary of the method: as §2

[7] = tested on: sugar beet; test: Test B pre/postemergence sugar beet; type: in vivo, Beta vulgaris
Summary of the method: as §2

[8] = tested on: giant foxtail; test: Test B pre/postemergence giant foxtail; type: in vivo, Setaria faberii
Summary of the method: as §2

[9] = tested on: rape; test: Test B pre/postemergence rape; type: in vivo, Brassica napus
Summary of the method: as §2

[10] = tested on: velvetleaf; test: Test B pre/postemergence velvetleaf; type: in vivo, Abutilon theophrasti
Summary of the method: as §2

[11] = tested on: crabgrass; test: Test B pre/postemergence crabgrass; type: in vivo, Digitaria sanguinalis
Summary of the method: as §2

[12] = tested on: soybean; test: Test B pre/postemergence soybean; type: in vivo, Glycine max
Summary of the method: as §2

[13] = tested on: blackgrass; test: Test B pre/postemergence blackgrass; type: in vivo, Alopecurus myosuroides
Summary of the method: as §2

[14] = tested on: purple nutsedge; test: Test B pre/postemergence purple nutsedge; type: in vivo, Cyperus rotundus
Summary of the method: as §2

[15] = tested on: bamyardgrass; test: Test B flood test barnyardgrass; type: in vivo, Echinochloa crus-galli
Summary of the method: as §1

[16] = tested on: cocklebur; test: Test B pre/postemergence cocklebur; type: in vivo, Xanthium strumarium
Summary of the method: as §2

[17] = tested on: duck salad; test: Test B flood test duck salad; type: in vivo, Heteranthera limosa
Summary of the method: as §1

[18] = tested on: corn; test: Test B pre/postemergence corn; type: in vivo, Zea mays
Summary of the method: as §2

[19] = tested on: surinam grass; test: Test B pre/postemergence surinam grass; type: in vivo, Brachiaria decumbens
Summary of the method: as §2

[20] = Rate 31 g/ha, Pre-emergence section (flood test species), scale 0 to 10
[21] = Rate 62 g/ha, flood test species, Pre-emergence, visual evaluation after twelve to sixteen days
[22] = Rate 125 g/ha, under heading Pre-emergence, flood test species, visual evaluation after twelve to sixteen days
[23] = Rate 250 g/ha, Pre-emergence (flood test species), scale 0 to 10, 0 is no effect, 10 is complete control
[24] = Postemergence, Rate 31 g/ha, visual rating, scale 0 to 10 (0 no effect, 10 complete control)
[25] = Postemergence, Rate 62 g/ha, scale 0 to 10, 0 is no effect, 10 is complete control
[26] = Postemergence, Rate 125 g/ha, scale of 0 to 10 where 0 is no effect and 10 is complete control
[27] = Preemergence, Rate 62 g/ha, scale of 0 to 10 where 0 is no effect and 10 is complete control
[28] = Preemergence, Rate 125 g/ha, scale of 0 to 10 where 0 is no effect and 10 is complete control
[29] = Preemergence, Rate 250 g/ha, scale 0 to 10 (0 no effect, 10 complete control)
[30] = Postemergence, Rate 250 g/ha, scale of 0 to 10, 0 is no effect, 10 is complete control
[31] = Preemergence, Rate 31 g/ha, visual rating, scale 0 to 10 (0 no effect, 10 complete control)

## CC(C)N(C(=O)n1oc(=O)n(CCC2=NOCCC2)c1=O)c1ccc(F)cc1 [Compound 656]
[1]; [20]
  S. Flatsedge plant response rating: 0
[1]; [21]
  Plant response rating, S. Flatsedge (0 to 10 scale, 0 is no effect, 10 is complete control): 0
[1]; [22]
  S. Flatsedge plant response rating (0 to 10 scale, 0 is no effect, 10 is complete control): 0
[1]; [23]
  S. Flatsedge plant response rating: 0
[2]; [20]
  Rice plant response rating: 0
[2]; [21]
  Plant response rating, Rice (0 to 10 scale, 0 is no effect, 10 is complete control): 0
[2]; [22]
  Rice plant response rating (0 to 10 scale, 0 is no effect, 10 is complete control): 0
[2]; [23]
  Rice plant response rating: 0
[3]; [24]
  Wild oats plant response rating: 0
[3]; [25]
  Plant response rating, Wild oats: 0
[3]; [26]
  Wild oats plant response rating: 0
[3]; [27]
  Wild oats plant response rating: 0
[3]; [28]
  Wild oats plant response rating: 0
[3]; [29]
  Plant response rating, Wild oats: 6
[4]; [24]
  Morningglory plant response rating: 0
[4]; [25]
  Plant response rating, Morningglory: 1
[4]; [26]
  Morningglory plant response rating: 2
[4]; [30]
  Morningglory plant response rating: 2
[4]; [27]
  Morningglory plant response rating: 0
[4]; [28]
  Morningglory plant response rating: 0
[4]; [29]
  Plant response rating, Morningglory: 0
[5]; [24]
  Redroot pigweed plant response rating: 0
[5]; [25]
  Plant response rating, Redroot pigweed: 0
[5]; [26]
  Redroot pigweed plant response rating: 0
[5]; [27]
  Redroot pigweed plant response rating: 0
[5]; [28]
  Redroot pigweed plant response rating: 4
[5]; [29]
  Plant response rating, Redroot pigweed: 6
[6]; [24]
  Wheat plant response rating: 0
[6]; [25]
  Plant response rating, Wheat: 0
[6]; [26]
  Wheat plant response rating: 0
[6]; [27]
  Wheat plant response rating: 0
[6]; [28]
  Wheat plant response rating: 0
[6]; [29]
  Plant response rating, Wheat: 0
[7]; [24]
  Sugarbeets plant response rating: 0
[7]; [25]
  Plant response rating, Sugarbeets: 0
[7]; [26]
  Sugarbeets plant response rating: 0
[7]; [27]
  Sugarbeets plant response rating: 0
[7]; [28]
  Sugarbeets plant response rating: 0
[7]; [29]
  Plant response rating, Sugarbeets: 3
[8]; [24]
  Giant foxtail plant response rating: 0
[8]; [25]
  Plant response rating, Giant foxtail: 3
[8]; [26]
  Giant foxtail plant response rating: 9
[8]; [30]
  Giant foxtail plant response rating: 9
[8]; [31]
  Giant foxtail plant response rating: 4
[8]; [27]
  Giant foxtail plant response rating: 4
[8]; [28]
  Giant foxtail plant response rating: 10
[8]; [29]
  Plant response rating, Giant foxtail: 10
[9]; [24]
  Rape plant response rating: 0
[9]; [25]
  Plant response rating, Rape: 0
[9]; [26]
  Rape plant response rating: 0
[9]; [27]
  Rape plant response rating: 0
[9]; [28]
  Rape plant response rating: 0
[9]; [29]
  Plant response rating, Rape: 0
[10]; [24]
  Velvetleaf plant response rating: 0
[10]; [25]
  Plant response rating, Velvetleaf: 0
[10]; [26]
  Velvetleaf plant response rating: 0
[10]; [27]
  Velvetleaf plant response rating: 2
[10]; [28]
  Velvetleaf plant response rating: 4
[10]; [29]
  Plant response rating, Velvetleaf: 6
[11]; [24]
  Crabgrass plant response rating: 0
[11]; [25]
  Plant response rating, Crabgrass: 0
[11]; [26]
  Crabgrass plant response rating: 0
[11]; [30]
  Crabgrass plant response rating: 8
[11]; [31]
  Crabgrass plant response rating: 6
[11]; [27]
  Crabgrass plant response rating: 7
[11]; [28]
  Crabgrass plant response rating: 7
[11]; [29]
  Plant response rating, Crabgrass: 8
[12]; [24]
  Soybean plant response rating: 1
[12]; [25]
  Plant response rating, Soybean: 2
[12]; [26]
  Soybean plant response rating: 2
[12]; [27]
  Soybean plant response rating: 0
[12]; [28]
  Soybean plant response rating: 0
[12]; [29]
  Plant response rating, Soybean: 0
[13]; [24]
  Blackgrass plant response rating: 6
[13]; [25]
  Plant response rating, Blackgrass: 6
[13]; [26]
  Blackgrass plant response rating: 7
[13]; [30]
  Blackgrass plant response rating: 9
[13]; [31]
  Blackgrass plant response rating: 2
[13]; [27]
  Blackgrass plant response rating: 4
[13]; [28]
  Blackgrass plant response rating: 4
[13]; [29]
  Plant response rating, Blackgrass: 5
[14]; [24]
  Nutsedge plant response rating: 0
[14]; [25]
  Plant response rating, Nutsedge: 0
[14]; [26]
  Nutsedge plant response rating: 0
[14]; [27]
  Nutsedge plant response rating: 0
[14]; [28]
  Nutsedge plant response rating: 0
[14]; [29]
  Plant response rating, Nutsedge: 0
[15]; [20]
  Barnyardgrass plant response rating: 0
[15]; [21]
  Plant response rating, Barnyardgrass (0 to 10 scale, 0 is no effect, 10 is complete control): 0
[15]; [22]
  Barnyardgrass plant response rating (0 to 10 scale, 0 is no effect, 10 is complete control): 0
[15]; [23]
  Barnyardgrass plant response rating: 0
[16]; [24]
  Cocklebur plant response rating: 0
[16]; [25]
  Plant response rating, Cocklebur: 0
[16]; [26]
  Cocklebur plant response rating: 0
[16]; [30]
  Cocklebur plant response rating: 0
[16]; [31]
  Cocklebur plant response rating: 0
[16]; [27]
  Cocklebur plant response rating: 0
[16]; [28]
  Cocklebur plant response rating: 0
[16]; [29]
  Plant response rating, Cocklebur: 0
[17]; [20]
  Ducksalad plant response rating: 0
[17]; [21]
  Plant response rating, Ducksalad (0 to 10 scale, 0 is no effect, 10 is complete control): 0
[17]; [22]
  Ducksalad plant response rating (0 to 10 scale, 0 is no effect, 10 is complete control): 0
[17]; [23]
  Ducksalad plant response rating: 0
[18]; [24]
  Corn plant response rating: 0
[18]; [25]
  Plant response rating, Corn: 0
[18]; [26]
  Corn plant response rating: 0
[18]; [30]
  Corn plant response rating: 0
[18]; [31]
  Corn plant response rating: 0
[18]; [27]
  Corn plant response rating: 0
[18]; [28]
  Corn plant response rating: 0
[18]; [29]
  Plant response rating, Corn: 0
[19]; [24]
  B. signalgrass plant response rating: 0
[19]; [25]
  Plant response rating, B. signalgrass: 0
[19]; [26]
  Plant response rating, B. signalgrass: 2
[19]; [30]
  B. signalgrass plant response rating: 5
[19]; [31]
  B. signalgrass plant response rating: 0
[19]; [27]
  B. signalgrass plant response rating: 0
[19]; [28]
  B. signalgrass plant response rating: 2
[19]; [29]
  Plant response rating, B. signalgrass: 6

Reference: patent publication US6737383B1, “Herbicidal oxadiazolidines” (priority 1999, dated 2004)
